From patent US20150306110A1, “COMPOSITIONS AND METHODS FOR TREATMENT OF INFLAMMATION AND HYPERKERATOTIC LESIONS” (Novelix Pharmaceuticals, Inc., priority 2008, published 2015)
Values after ≈ are worked out from the molar mass of the structure shown.

How the values were obtained:
[1] = test system: hyperkeratotic palpable lesion with inflammatory components; assay: Topical treatment of human hyperkeratotic lesions with inflammatory components; type: in vivo; details: 1% topical solution
Experimental: A 1% topical solution of NVX-207 (20% ethanol, 20% Tween® 80 and 80% water) was applied to human skin to treat a treatment resistant hyperkeratotic palpable lesion with inflammatory components. The NVX-207 was administered once a day on days 1, 2, 3, 10, 11, 12 and 13. Significant improvement (better than 80% reduction) was observed after one day, and additional improvement was observed after a total of six additional treatments applied within 14 days. […] A second identical lesion was treated with the same formulation twice a day for 2 days, and disappeared.

TC-71 (Ewing's sarcoma) = assay: Cell growth/survival, TC-71 Ewing's sarcoma cells; type: cell-based; details: Homo sapiens, TP53 mut.
Experimental: (§1) Melanoma cell lines used in this study were maintained in Dulbecco's modified Eagle medium (DMEM with 4500 mg/l glucose) supplemented with 10% FCS from Gibco BRL (Life Technologies, Berlin, Germany). The canine mastocytoma cell line C2 (DeVinney et al, Am. J. Respir. Cell Mol. Biol. 3:413-20, 1990) was used in this study, along with additional human cell lines: RD-ES and TC-71 (human Ewing's sarcoma), SAOS2 (human osteosarcoma), HT-1080 (human fibrosarcoma), Caco-2 (human colon adenocarcinoma), A549 (human lung adenocarcinoma), Hep-G2 and Hep-3B (human hepatocellular carcinoma), SK-N-DZ and SK-N-FI (human embryonal neuroblastoma), HTB9 (human bladder cancer), MDA-468 and MCF-7 (human breast cancer) and SW872 liposarcoma. All breast cancer cells were routinely cultured in DMEM/F-12 or in DMEM alone supplemented with 10% FCS at 37° C. in a humidified 5% CO2 atmosphere. RD-ES and TC-71 sarcoma cell lines were maintained in RPMI 1640 (Biochrom KG, Berlin, Germany) containing 10% FCS at 37° C. in a humidified 5% CO2 atmosphere. […]
(§2) Briefly, cells were maintained in standard medium, harvested, and plated at equal densities (750,000 cells in 5 cm tissue culture dishes). […] For the assessment of cell growth, the number of surviving cells was determined using an automated cell counter from Beckman Coulter GmbH (Krefeld, Germany). […]

human keratinocytes = assay: Survival / anti-proliferative activity in keratinocytes; type: cell-based; details: for Mean survival, percentage of control-treated cells: n=3
Experimental: All cells were treated with 2.5 μM NVX-207. Percentage (means±S.E., n=3) of control-treated cells are given. […] Mean survival in NVX-207 treated fibroblasts at 80% confluency was 92% (S.E.=3.8) versus 3.8% mean survival (S.E.=0.4) at 30% confluency. […] HUVECs, keratinocytes and fibroblast cells were obtained from Lonza GmbH (Wuppertal, Germany) and cultivated according to the manufacturer's instructions.
Human umbilical vein endothelial cells (HUVEC), keratinocytes and fibroblast cells were obtained from Lonza GmbH (Wuppertal, Germany) and cultivated according to the manufacturer's instructions. […] The IC50 value of betulinic acid in human keratinocytes was recently determined to be ˜5.0 μg/ml (Tino Galgon al., Exp Dermatol. 14:736-43, 2005), while the IC50 of NVX-207 is ˜0.7 µg/ml. […] Mean survival in NVX-207 treated fibroblasts at 80% confluency was 92% (S.E.=3.8) versus 3.8% mean survival (S.E.=0.4) at 30% confluency. […] Under normal physiological conditions, the endothelium, as well as skin fibroblasts and skin keratinocytes, show relatively low turn-over and limited cell divisions to maintain tissue integrity.
Keratinocytes at high confluence (e.g., 80%) mimic normal physiological conditions in which these cells divide more slowly (fewer cell divisions per unit of time). In contrast, keratinocytes in psoriatic lesions divide more rapidly, as do keratinocytes cultured at lower confluency (e.g., 30%). Thus, the 30% confluency conditions were considered a model for psoriasis whereas the behavior of 80% confluent cells more closely reflects the conditions observed in normal skin.

RD-ES (Ewing's sarcoma) = assay: Cell growth/survival, RD-ES Ewing's sarcoma cells; type: cell-based; details: Homo sapiens, TP53 mut.
Experimental: as §1, §2

## C=C(C)[C@@H]1CC[C@]2(C(=O)OCC(N)(CO)CO)CC[C@]3(C)[C@H](CC[C@@H]4[C@@]5(C)CC[C@H](OC(C)=O)C(C)(C)[C@@H]5CC[C@]43C)[C@@H]12 [NVX-207, 3-O-acetylbetulinic acid-2-amino-3-hydroxy-2-hydroxymethylpropyl ester]
[1]
  Deleterious (toxic) effects on the treated areas (inflammation, redness, swelling): No deleterious (toxic) effects
[1]; after one day
  Improvement (reduction) of lesion: > 80%
[1]; first lesion
  Side effects: No reddening, inflammation or any other side effects were observed
TC-71 (Ewing's sarcoma)
  IC50: 5.5 µM
Human keratinocytes; Homo sapiens, Keratinocyte
  IC50: ~0.7 µg/mL (≈ 1.16 µM)
Human keratinocytes; human keratinocytes
  IC50 lower compared to betulinic acid on a molar basis: ~10 fold
Human keratinocytes; keratinocytes, 2.5 μM
  More active against proliferating cells (30% vs 80% confluency): ~6 fold
Human keratinocytes; keratinocytes, 30% confluency, 2.5 μM
  Mean survival, percentage of control-treated cells: 17%
Human keratinocytes; keratinocytes, 80% confluency, 2.5 μM
  Mean survival, percentage of control-treated cells: 92.7%
RD-ES (Ewing's sarcoma)
  IC50: 5.3 µM
